Test results: PMC7655722 (Organic letters, 2020)
Read-outs that look alike come from different tables or passages of the source.

Columns and labels:
[1] = test system: stem-like cells with epithelial-mesenchymal transition (EMT) properties; details: cited from earlier work
in vitro = type: cell-based; details: human
MCF10A = assay: cells; type: cell-based; details: Homo sapiens, MCF-10A, read-out: IC50, cell viability
MDA-MB-231 = assay: cells; type: cell-based; details: for IC50: Homo sapiens
P335 = P335 ref 6; cited from earlier work
glioblastoma Hs683 = glioblastoma Hs683 ref 9, 10; cited from earlier work
[2] = test system: chronic lymphocytic leukemia (CLL); details: chronic lymphocytic leukemia (CLL) ref 8; cited from earlier work
[3] = test system: cancer stem cells (CSCs) in MDA-MB-231 cell line; details: MDA-MB-231 cell line ref 12; cited from earlier work

Row | SMILES | induction of cell death in stem-like cells with EMT properties [1] | IC50 (in vitro) | IC50 (MCF10A) | IC50 (MDA-MB-231; MDA-MB-231, read-out: IC50, cell viability) | IC50 (MDA-MB-231; MDA-MB-231, read-out: cytotoxicity (IC50) as quoted in text) | selectivity between cancer vs non-cancer cell line (MDA-MB-231; MDA-MB-231 vs MCF-10A) | IC50 (P335) | IC50 (glioblastoma Hs683) | IC50 [2] | effect on CD44/CD24-positive population [3]
1 | CC(C)=C[C@H]1C[C@H](C)[C@]2(CC[C@]3(C)C[C@H]4[C@H](C(=O)C[C@@]4(C)O)/C(C=O)=C\C[C@H]32)O1 [OpA, ophiobolin A] | specifically induces cell death | ~200 nM | 198 ± 76 nM | 69 ± 24 nM | ~69 nM | ~ 3 fold | 63 nM | 620 nM | 1 nM | significantly reducing the CD44/CD24-positive population
2 | CC(C)=CCC[C@H](C)[C@@]1(O)CC[C@]2(C)C[C@H]3[C@H](C(=O)C[C@@]3(C)O)/C(C=O)=C\C[C@H]21 [compound 2] | – | – | – | – | – | – | – | – | – | significantly reducing the CD44/CD24-positive population
